From patent US9359297B2, “Spirolactam derivatives and uses of same” (H. Lundbeck A/S, priority 2009, dated 2016) come the findings set out here.

The target of assay [1] is T1, rat metabotropic glutamate receptor 5 (rmGluR5) (Rattus norvegicus, UniProt P31424).
T1 construct: expressed in transfected cells
The experiment in a line: Calcium mobilization (FLIPR) assay for negative allosteric modulation, EC80 glutamate, rmGluR5 in HEK 293. Type of assay: cell-based. The note with it: HEK293; rmGluR5, inhibition of EC80 glutamate response; read-out: FLIPR maximum inhibition. On the procedure: The cDNA for rat metabotropic glutamate receptor 5 (rmGluR5) and the cDNA for human metabotropic glutamate receptor 5 (hmGluR5) were generous gifts from S. Nakanishi (Kyoto University, Kyoto, Japan). The rmGluR5 or hmGluR5 was stably expressed in a HEK 293 cell line and grown in Dulbecco's Modified Eagle Medium (DMEM) (Invitrogen, Carlsbad, Calif.) with supplements (10% bovine calf serum, 4 mM glutamine, 100 units/mL penicillin, 100 μg/mL streptomycin and 0.75 mM G1418) at 37° C., 5% CO2. Twenty-four hours prior to assay, cells were seeded into 384-well black wall microtiter plates coated with poly-D-lysine. Just prior to assay, media was aspirated and cells dye-loaded (25 μL/well) with 3 μM Fluo-4/0.01% pluronic acid in assay buffer (Hank's Balanced Saline Solution (HBSS)): 150 mM NaCl, 5 mM KCl, 1 mM CaCl2, 1 mM MgCl2, plus 20 mM N-2-Hydroxyethylpiperazine-N′-2-ethanesulfonic acid (HEPES), pH 7.4, 0.1% bovine serum albumin (BSA) and 2.5 mM probenicid) for 1 hour in 5% CO2 at 37° C. After excess dye was discarded, cells were washed in assay buffer and layered with a final volume equal to 30 μL/well. Basal fluorescence is monitored in a fluorometric imaging plate reader (FLIPR) (Molecular Devices, Sunnyvale, Calif.) with an excitation wavelength of 488 nm and an emission range of 500 to 560 nm. Laser excitation energy was adjusted so that basal fluorescence readings were approximately 10,000 relative fluorescent units. Cells were stimulated with an EC20 or an EC80 concentration of glutamate in the presence of a compound to be tested, both diluted in assay buffer, and relative fluorescent units were measured at defined intervals (exposure=0.6 sec) over a 3 min period at room temperature. Basal readings derived from negative controls were subtracted from all samples. Maximum change in fluorescence was calculated for each well. Concentration-response curves derived from the maximum change in fluorescence were analyzed by nonlinear regression (Hill equation). A negative modulator can be identified from these concentration-response curves if a compound produces a concentration dependent inhibition of the EC80 glutamate response.

For assay [2], the target named is T2, human metabotropic glutamate receptor 5 (hmGluR5) (Homo sapiens, UniProt P41594).
T2 construct: expressed in transfected cells
The assay is described as follows: Calcium mobilization (FLIPR) assay for negative allosteric modulation, EC80 glutamate, hmGluR5 in HEK 293. Format: cell-based. The note with it: HEK293; hmGluR5, inhibition of EC80 glutamate response; read-out: FLIPR maximum inhibition. The essentials:
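Stably transfected HEK 293 cells, Fluo-4-loaded, stimulated with EC80 glutamate plus test compound in HBSS/20 mM HEPES pH 7.4 with probenecid; FLIPR fluorescence read over 3 min at room temperature. Basal-subtracted maximum fluorescence change fitted by Hill equation; negative modulation seen as concentration-dependent inhibition of the EC80 response.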
(In general: Calcium assays in cells follow changes in intracellular calcium, usually with a dye or a luminescent sensor.)

T2 sequence (P41594 21-1212): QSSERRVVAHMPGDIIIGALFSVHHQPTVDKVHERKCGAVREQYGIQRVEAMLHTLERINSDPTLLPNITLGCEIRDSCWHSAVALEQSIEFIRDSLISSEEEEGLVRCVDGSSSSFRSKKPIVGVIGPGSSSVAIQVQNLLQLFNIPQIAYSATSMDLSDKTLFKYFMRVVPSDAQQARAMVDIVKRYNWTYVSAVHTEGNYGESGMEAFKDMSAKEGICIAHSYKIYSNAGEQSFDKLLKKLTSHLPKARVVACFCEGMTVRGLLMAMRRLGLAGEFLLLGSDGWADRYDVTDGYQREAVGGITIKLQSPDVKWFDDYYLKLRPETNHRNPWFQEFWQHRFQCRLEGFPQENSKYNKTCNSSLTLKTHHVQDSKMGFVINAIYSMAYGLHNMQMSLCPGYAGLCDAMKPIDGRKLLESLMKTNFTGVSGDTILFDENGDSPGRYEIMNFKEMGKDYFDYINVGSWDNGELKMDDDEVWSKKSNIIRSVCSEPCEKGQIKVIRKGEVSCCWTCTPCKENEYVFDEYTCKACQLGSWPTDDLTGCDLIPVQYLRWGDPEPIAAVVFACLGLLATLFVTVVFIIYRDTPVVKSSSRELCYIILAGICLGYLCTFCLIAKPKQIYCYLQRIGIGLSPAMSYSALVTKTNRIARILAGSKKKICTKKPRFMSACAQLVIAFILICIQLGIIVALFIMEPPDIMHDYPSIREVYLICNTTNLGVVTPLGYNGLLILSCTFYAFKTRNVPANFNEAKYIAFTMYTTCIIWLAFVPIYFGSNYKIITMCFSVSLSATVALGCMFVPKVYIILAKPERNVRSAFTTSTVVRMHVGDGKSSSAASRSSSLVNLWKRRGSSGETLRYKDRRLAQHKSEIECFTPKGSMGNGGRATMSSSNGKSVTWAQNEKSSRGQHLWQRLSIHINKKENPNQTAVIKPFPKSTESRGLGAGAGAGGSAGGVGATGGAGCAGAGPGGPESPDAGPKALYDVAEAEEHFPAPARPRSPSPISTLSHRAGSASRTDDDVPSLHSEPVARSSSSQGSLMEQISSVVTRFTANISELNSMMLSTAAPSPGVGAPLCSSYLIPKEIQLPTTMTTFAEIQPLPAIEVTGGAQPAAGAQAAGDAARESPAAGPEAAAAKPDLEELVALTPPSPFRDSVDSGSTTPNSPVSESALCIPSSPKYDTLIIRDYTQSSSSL
T1 sequence (P31424 21-1203): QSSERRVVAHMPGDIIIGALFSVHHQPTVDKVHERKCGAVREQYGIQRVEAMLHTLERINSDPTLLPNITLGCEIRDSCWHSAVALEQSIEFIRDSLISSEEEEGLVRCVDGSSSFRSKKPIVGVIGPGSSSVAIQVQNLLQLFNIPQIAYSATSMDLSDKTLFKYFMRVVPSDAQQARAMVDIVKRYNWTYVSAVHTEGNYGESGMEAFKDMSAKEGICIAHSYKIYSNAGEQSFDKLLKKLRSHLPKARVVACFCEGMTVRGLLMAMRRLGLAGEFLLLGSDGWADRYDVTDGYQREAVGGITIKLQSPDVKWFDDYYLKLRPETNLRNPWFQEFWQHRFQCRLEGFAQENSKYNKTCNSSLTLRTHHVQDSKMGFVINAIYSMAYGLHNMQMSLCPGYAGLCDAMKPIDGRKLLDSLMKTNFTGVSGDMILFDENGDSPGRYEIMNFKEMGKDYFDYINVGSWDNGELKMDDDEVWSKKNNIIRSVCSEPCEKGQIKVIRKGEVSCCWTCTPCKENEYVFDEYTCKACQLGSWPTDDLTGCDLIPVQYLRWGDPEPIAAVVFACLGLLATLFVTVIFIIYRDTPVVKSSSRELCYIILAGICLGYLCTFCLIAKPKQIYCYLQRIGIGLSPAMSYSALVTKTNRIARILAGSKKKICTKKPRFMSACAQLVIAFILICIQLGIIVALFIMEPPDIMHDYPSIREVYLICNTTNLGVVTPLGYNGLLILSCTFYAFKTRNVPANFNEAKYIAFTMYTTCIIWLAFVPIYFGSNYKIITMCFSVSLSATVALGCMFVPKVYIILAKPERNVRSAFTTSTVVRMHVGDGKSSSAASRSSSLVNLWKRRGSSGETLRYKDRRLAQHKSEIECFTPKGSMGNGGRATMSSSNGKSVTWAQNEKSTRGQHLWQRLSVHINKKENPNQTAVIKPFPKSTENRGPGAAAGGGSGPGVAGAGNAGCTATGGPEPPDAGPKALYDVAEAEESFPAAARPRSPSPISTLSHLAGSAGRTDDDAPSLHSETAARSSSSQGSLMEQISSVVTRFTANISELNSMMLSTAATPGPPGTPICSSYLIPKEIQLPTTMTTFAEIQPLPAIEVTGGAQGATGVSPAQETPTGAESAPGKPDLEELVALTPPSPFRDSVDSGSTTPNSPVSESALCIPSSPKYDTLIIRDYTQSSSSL

Take `O=C(N[C@H]1CCC[C@]2(CCN(c3cccc(F)c3)C2=O)C1)c1ccccn1` (racemic) [Example 19, cis-Pyridine-2-carboxylic acid [2-(3-fluoro-phenyl)-1-oxo-2-aza-spiro[4.5]dec-7-yl]-amide]: in assay [1], the Emax was in the range of 81 to 99%.
On the same count and under the same terms, with `Cc1cccc(N2CC[C@]3(CCC[C@H](NC(=O)c4cccc(F)c4)C3)C2=O)n1` (racemic) [Example 27, cis-3-Fluoro-N-[2-(6-methyl-pyridin-2-yl)-1-oxo-2-aza-spiro[4.5]dec-7-yl]-benzamide] the figure was 81 to 99%; with `Cc1cccc(C(=O)N[C@H]2CCC[C@]3(CCN(c4cccc(C(F)(F)F)n4)C3=O)C2)n1` (racemic) [Example 41, cis-6-Methyl-pyridine-2-carboxylic acid [1-oxo-2-(6-trifluoromethyl-pyridin-2-yl)-2-aza-spiro[4.5]dec-7-yl]-amide], 81 to 99%; with `Cc1cccc(C(=O)N[C@H]2CCC[C@]3(CCN(c4cc(F)cc(F)c4)C3=O)C2)n1` (racemic) [Example 42, cis-6-Methyl-pyridine-2-carboxylic acid [2-(3,5-difluoro-phenyl)-1-oxo-2-aza-spiro[4.5]dec-7-yl]-amide], 81 to 99%.
Regarding `Cc1cccc(C(=O)N[C@H]2CCC[C@]3(CCN(c4ccc(F)cc4)C3=O)C2)n1` (racemic) [Example 44, cis-6-Methyl-pyridine-2-carboxylic acid [2-(4-fluoro-phenyl)-1-oxo-2-aza-spiro[4.5]dec-7-yl]-amide], the Emax in assay [1] fell in the range of 81 to 99%.
Regarding `Cc1cccc(C(=O)N[C@H]2CCC[C@@]3(CCN(c4cccc(Cl)c4)C3=O)C2)n1` (relative stereo) [Example 3, trans-6-Methyl-pyridine-2-carboxylic acid [2-(3-chloro-phenyl)-1-oxo-2-aza-spiro [4.5]dec-7-yl]-amide], in assay [1], the Emax lay within 81 to 99%.
Turning to `Cc1cccc(N2CC[C@]3(CCC[C@H](NC(=O)c4ccccn4)C3)C2=O)n1` (relative stereo) [Example 7, cis-Pyridine-2-carboxylic acid [2-(6-methyl-pyridin-2-yl)-1-oxo-2-aza-spiro [4.5]dec-7-yl]-amide], the Emax in assay [1] lay within 81 to 99%.
The same measure, in the same setting: then `N#Cc1cccc(N2CC[C@]3(CCC[C@H](NC(=O)c4ccccn4)C3)C2=O)c1` (relative stereo) [Example 9, cis-Pyridine-2-carboxylic acid [2-(3-cyano-phenyl)-1-oxo-2-aza-spiro[4.5]dec-7-yl]-amide], with 81 to 99%.
On the same count and under the same terms, then `Cc1cccc(C(=O)N[C@H]2CCC[C@]3(CCN(c4cccc(C#N)c4)C3=O)C2)n1` (relative stereo) [Example 10, cis-6-Methyl-pyridine-2-carboxylic acid [2-(3-cyano-phenyl)-1-oxo-2-aza-spiro [4.5]dec-7-yl]-amide], with 81 to 99%.
As to `O=C(N[C@@H]1CC(F)(F)C[C@]2(CCN(c3cccc(F)c3)C2=O)C1)c1ccccn1` (single isomer, unassigned) [Example 102], the Emax in assay [2] lay in the range of 47 to 93%.
Take `Cc1nccc(C(=O)N[C@H]2CC(F)(F)C[C@]3(CCN(c4cccc(F)c4)C3=O)C2)n1` (single isomer, unassigned) [Example 103]: the Emax in assay [2] fell in the range of 47 to 93%.
The same measure, in the same setting: with `Cc1nccc(C(=O)N[C@@H]2CC(F)(F)C[C@@]3(CCN(c4cccc(F)c4)C3=O)C2)n1` (single isomer, unassigned) [Example 104] the figure was 47 to 93%; with `O=C(N[C@H]1CC(F)(F)C[C@]2(CCN(c3cc(F)cc(F)c3)C2=O)C1)c1ccccn1` (single isomer, unassigned) [Example 113], 47 to 93%.
Take `O=C(N[C@@H]1CC(F)(F)C[C@@]2(CCN(c3cc(F)cc(F)c3)C2=O)C1)c1ccccn1` (single isomer, unassigned) [Example 114]: the Emax in assay [2] lay within 47 to 93%.
As for `Cc1nccc(C(=O)N[C@@H]2C[C@@](C)(O)C[C@@]3(CCN(c4cc(F)cc(F)c4)C3=O)C2)n1` (single isomer, unassigned) [Example 118, trans-2-Methyl-pyrimidine-4-carboxylic acid [2-(3,5-difluoro-phenyl)-9-hydroxy-9-methyl-1-oxo-2-aza-spiro[4.5]dec-7-yl]-amide], in assay [2], the Emax lay within 47 to 93%.
Still for that read-out and setting: then `Cc1nccc(C(=O)N[C@@H]2C[C@](C)(O)C[C@@]3(CCN(c4cc(F)cc(F)c4)C3=O)C2)n1` (single isomer, unassigned) [Example 119, cis-2-Methyl-pyrimidine-4-carboxylic acid [2-(3,5-difluoro-phenyl)-9-hydroxy-9-methyl-1-oxo-2-aza-spiro[4.5]dec-7-yl]-amide], with 47 to 93%.
Still for that read-out and setting: with `Cc1nccc(N2CC[C@@]3(C[C@@H](NC(=O)c4cccc(F)c4)CC(F)(F)C3)C2=O)n1` (single isomer, unassigned) [Example 120] the figure was 47 to 93%.
`Cc1nccc(N2CC[C@]3(C[C@H](NC(=O)c4cccc(F)c4)CC(F)(F)C3)C2=O)n1` (single isomer, unassigned) [Example 121]: in assay [2], the Emax lay within 47 to 93%.
Still for that read-out and setting: with `Cc1cccc(C(=O)N[C@H]2CC(F)(F)C[C@]3(CCN(c4ccc(F)cn4)C3=O)C2)n1` (single isomer, unassigned) [Example 127] the figure was 47 to 93%; with `Cc1cccc(C(=O)N[C@@H]2CCC[C@@]3(CCN(c4ccc(F)cn4)C3=O)C2)n1` [Example 73, 6-Methyl-pyridine-2-carboxylic acid [(5R,7R)-2-(5-fluoro-pyridin-2-yl)-1-oxo-2-aza-spiro[4.5]dec-7-yl]-amide], 73 to 95%; with `Cc1cccc(C(=O)N[C@@H]2CCC[C@@]3(CCN(c4ccc(F)cc4)C3=O)C2)n1` [Example 80, 6-Methyl-pyridine-2-carboxylic acid [(5R,7R)-2-(4-fluoro-phenyl)-1-oxo-2-aza-spiro[4.5]dec-7-yl]-amide], 73 to 95%.
Regarding `Cc1cc(C(=O)N[C@@H]2CCC[C@@]3(CCN(c4cccc(F)c4)C3=O)C2)ccn1` [Example 95, N-[(5R,7R)-2-(3-Fluoro-phenyl)-1-oxo-2-aza-spiro[4.5]dec-7-yl]-2-methyl-isonicotinamide], in assay [2], the Emax was 73 to 95%.
Same read-out and setting: with `CN(C)c1cccc(N2CC[C@]3(CCC[C@H](NC(=O)c4cccc(F)c4)C3)C2=O)c1` [Example 132, Cis-N-[(5S,7S)-2-(3-Dimethylamino-phenyl)-1-oxo-2-aza-spiro[4.5]dec-7-yl]-3-fluoro-benzamide] the figure was 47 to 93%; with `Cc1nccc(N2CC[C@@]3(CCC[C@@H](NC(=O)c4cccc(Cl)c4)C3)C2=O)n1` [Example 148, 3-Chloro-N-[(5R,7R)-2-(2-methyl-pyrimidin-4-yl)-1-oxo-2-aza-spiro[4.5]dec-7-yl]-benzamide], 47 to 93%.
Same read-out and setting: then `Cc1cccc(C(=O)N[C@@H]2CCC[C@@]3(CCN(c4ccnc(C)n4)C3=O)C2)c1` [Example 152, 3-Methyl-N-[(5R,7R)-2-(2-methyl-pyrimidin-4-yl)-1-oxo-2-aza-spiro[4.5]dec-7-yl]-benzamide], with 47 to 93%.
Same read-out and setting: with `Cc1cccc(C(=O)N[C@@H]2CCC[C@@]3(CCN(c4ccnc(C(F)(F)F)n4)C3=O)C2)n1` [Example 156, 6-Methyl-pyridine-2-carboxylic acid[(5R,7R)-1-oxo-2-(2-trifluoromethyl-pyrimidin-4-yl)-2-aza-spiro[4.5]dec-7-yl]-amide] the figure was 47 to 93%; with `CN1CCC(N2CCC3(CCCC(NC(=O)c4cccc(F)c4)C3)C2=O)CC1` (stereo not drawn) [Example 157, 3-Fluoro-N-[2-(1-methyl-piperidin-4-yl)-1-oxo-2-aza-spiro[4.5]dec-7-yl]-benzamide], 47 to 93%.
Turning to `Cn1ccc(N2CCC3(CCCC(NC(=O)c4cccc(F)c4)C3)C2=O)n1` (stereo not drawn) [Example 158, 3-Fluoro-N-[2-(1-methyl-1H-pyrazol-3-yl)-1-oxo-2-aza-spiro[4.5]dec-7-yl]-benzamide], the Emax in assay [2] was 47 to 93%.
On the same count and under the same terms, with `Cc1nc(C(=O)N[C@@H]2CCC[C@@]3(CCN(c4cc(F)cc(F)c4)C3=O)C2)cc(=O)[nH]1` [Example 159, 2-Methyl-6-oxo-1,6-dihydro-pyrimidine-4-carboxylic acid [(5R,7R)-2-(3,5-difluoro-phenyl)-1-oxo-2-aza-spiro[4.5]dec-7-yl]amide] the figure was 47 to 93%.
For the compound `CC1(F)CC(NC(=O)c2ccccn2)CC2(CCN(c3cccc(F)c3)C2=O)C1` (stereo not drawn) [Example 160, Pyridine-2-carboxylic acid [9-fluoro-2-(3-fluoro-phenyl)-9-methyl-1-oxo-2-aza-spiro[4.5]dec-7-yl]-amide], the Emax in assay [2] lay in the range of 47 to 93%.
